# Results: patent US9687477B2 (priority 2011, dated 2017)
# Key:
# [1] = test system: Influenza A/WSN/33 virus (H1N1); assay: microbe, parasite or virus in culture; type: cell-based
Compound,"production of infectious influenza virus particles (virus titer, plaque assay) [1]",influenza viral protein expression (influenza virus),"influenza viral protein expression (NP, NS1, NS2, M1, M2) (influenza virus)"
"CCCCCCCCCCCCC/C=C/[C@@H](O)[C@H](CO)N(C)C [DMS, D-erythro-N,N-dimethylsphingosine]",suppressed the production of infectious influenza virus particles,inhibition was also observed,inhibited influenza viral protein expression
"Oc1ccc(Nc2nc(-c3ccc(Cl)cc3)cs2)cc1 [SKI-II, 4-[4-(4-Chloro-phenyl)-thiazol-2-ylamino]-phenol]",suppressed the production of infectious influenza virus particles,inhibition was also observed,inhibited influenza viral protein expression
